Experimental data published in US20220056018A1, “SREBP INHIBITORS COMPRISING A THIOPHENE CENTRAL RING” (Capulus Therapeutics, LLC, priority 2019, published 2022).

Legend:
[1] = system: SAOS2; assay: Cancer cell growth inhibition; format: cell-based; conditions: Homo sapiens, SAOS-2; SAOS2 (bone), 72 hr treatment
Experimental: (§1) The ability of select compounds to inhibit cell growth in various cancer cell lines are evaluated. […] The cell lines shown in Table 2 have reduced growth by at least 50% at 10 uM or lower over 72 hr treatment in growth media. The cell lines shown in Table 3 have reduced growth by at least 50% with an IC50 greater than 10 uM.
(§2) Six 10-fold compound dilutions are prepared in DMSO (e.g. 10 mM, 1 mM, 100 uM, 10 uM, 1 uM, and 0.1 uM). Single data points are acquired for each concentration. The final concentration of DMSO is 0.1%. The duration of the treatment is 72 hr. Growth inhibition is measured using Sulforhodamine B in a protein staining assay. Activity of the agents is determined by evaluation the following parameters: IC50, GI50, IC10, TGI, LC50, IC90, and GI90 (where these values can be calculated).

[2] = system: MHHES1; assay: Cancer cell growth inhibition; format: cell-based; conditions: Homo sapiens, MHH-ES-1; MHHES1 (bone), 72 hr treatment
Experimental: as §1, §2

[3] = system: SNB75; assay: Cancer cell growth inhibition; format: cell-based; conditions: Homo sapiens, SNB-75; SNB75 (brain), 72 hr treatment
Experimental: as §1, §2

[4] = system: A549; assay: Cancer cell growth inhibition; format: cell-based; conditions: Homo sapiens; A549 (lung), 72 hr treatment
Experimental: as §1, §2

[5] = system: HCT116; assay: Cancer cell growth inhibition; format: cell-based; conditions: Homo sapiens, HCT-116; HCT116 (colon), 72 hr treatment
Experimental: as §1, §2

[6] = system: IGROV1; assay: Cancer cell growth inhibition; format: cell-based; conditions: Homo sapiens, IGROV-1; IGROV1 (ovary), 72 hr treatment
Experimental: as §1, §2

[7] = system: COLO205; assay: Cancer cell growth inhibition; format: cell-based; conditions: Homo sapiens, COLO 205; COLO205 (colon), 72 hr treatment
Experimental: as §1, §2

[8] = system: NCIH460; assay: Cancer cell growth inhibition; format: cell-based; conditions: Homo sapiens, NCI-H460; NCIH460 (lung), 72 hr treatment
Experimental: as §1, §2

[9] = system: SKHEP1; assay: Cancer cell growth inhibition; format: cell-based; conditions: Homo sapiens, SK-HEP1; SKHEP1 (liver), 72 hr treatment
Experimental: as §1, §2

[10] = system: A375; assay: Cancer cell growth inhibition; format: cell-based; conditions: Homo sapiens, A-375; A375 (skin), 72 hr treatment
Experimental: as §1, §2

[11] = system: SREBP; assay: Reporter Screening Assay (SRE-luciferase reporter, HepG2); format: cell-based; conditions: Homo sapiens; SRE-luciferase reporter HepG2 cells, 24 hours, 0.01 uM to 10 uM; read-out: I: Reporter Screening Assay (Ave EC50 (nM))
Method in brief: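 HepG2 SREBP reporter cells carrying an SRE-luciferase construct were serum-washed, then treated for 24 h at 37° C with compounds (0.01 uM to 10 uM) in phenol-free medium with varying FBS levels. Total luminescence was read after a 30 min incubation with luciferase substrate.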

[12] = Stability in human liver microsomes; format: in vitro ADME; conditions: 37° C., NADPH
Method in brief: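 Compound from a 100 μM working solution was preincubated 10 min at 37 °C with human liver microsomes (added at 3.33 mg/mL) in 100 mM potassium phosphate. Incubation then ran 60 min at 37 °C with NADPH (2.85 mM cofactor solution), alongside a no-cofactor 60-min control and a 0-min sample. Parent compound was quantified by LC-MS/MS after acetonitrile quench for half-life.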

[13] = Stability in mouse liver microsomes; format: in vitro ADME
Method in brief: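 Mouse liver microsomes, run by the same procedure as for human microsomes: 100 μM working solution pre-incubated with microsomes in 100 mM potassium phosphate buffer for 10 min at 37° C, then incubated 60 min at 37° C with NADPH cofactor, plus a no-cofactor control. Remaining compound quantified by LC-MS/MS.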

Row | IC50 [1] [µM] | IC50 [2] [µM] | IC50 [3] [µM] | IC50 [4] [µM] | IC50 [5] [µM] | IC50 [6] [µM] | IC50 [7] [µM] | IC50 [8] [µM] | IC50 [9] [µM] | IC50 [10] [µM] | EC50 [11] [nM] | percent of compound remaining after 60 min in human liver microsomes [12] | percent parent remaining after 60 min in liver microsomes [13] | Structure (SMILES)
1 | > 10 | < 10 | > 10 | < 10 | < 10 | > 10 | < 10 | < 10 | < 10 | > 10 | < 249 | +++ (>60.1 = +++) | +++ (>60.1 = +++) | CC(C)(O)Cc1cc(-c2csc(-c3ccc(NS(C)(=O)=O)cc3Cl)c2)ccn1 [Compound I-9004, N-(3-chloro-4-(4-(2-(2-hydroxy-2-methylpropyl)pyridin-4-yl)thiophen-2-yl)phenyl)methanesulfonamide]
2 | > 10 | < 10 | > 10 | < 10 | < 10 | > 10 | < 10 | < 10 | < 10 | > 10 | < 249 | ++ (30.1-60 = ++) | +++ (>60.1 = +++) | CC(C)(CO)c1cc(-c2csc(-c3ccc(NS(C)(=O)=O)cc3Cl)c2)ccn1 [Compound I-8909, N-(3-chloro-4-(4-(2-(1-hydroxy-2-methylpropan-2-yl)pyridin-4-yl)thiophen-2-yl)phenyl)methanesulfonamide]
3 | < 10 | < 10 | > 10 | < 10 | < 10 | < 10 | < 10 | < 10 | < 10 | > 10 | < 249 | +++ (>60.1 = +++) | +++ (>60.1 = +++) | CS(=O)(=O)Nc1ccc(-c2cc(-c3ccnc4c3OCCO4)cs2)c(Cl)c1 [Compound I-9017, N-(3-chloro-4-(4-(2,3-dihydro-[1,4]dioxino[2,3-b]pyridin-8-yl)thiophen-2-yl)phenyl)methanesulfonamide]
